Literature values, collected in patent US20140296830A1 (priority 2013, published 2014).

Tests used:
[1] = versus mepivacaine and lidocaine
[2] = pH 4

| SMILES | potency relative to mepivacaine and lidocaine [1] | solution stability [2] |
| --- | --- | --- |
| CCCCN1CCCCC1C(=O)Nc1c(C)cccc1C (centres unmarked) [bupivacaine] | about 4 times | – |
| CSCC[C@@H]1NC(=O)[C@H](CC(C)C)NC(=O)[C@H](CCCNC(=N)N)NC(=O)[C@H](CO)NC(=O)[C@@H]2CSSC[C@@H]3NC(=O)[C@H](CO)NC(=O)CNC(=O)[C@H]([C@@H](C)O)NC(=O)[C@H](CSSC[C@H](N)C(=O)N[C@@H](CCCCN)C(=O)NCC(=O)N[C@@H](CCCCN)C(=O)NCC(=O)N[C@@H](C)C(=O)N[C@@H](CCCCN)C(=O)N2)NC(=O)[C@H](CSSC[C@@H](C(N)=O)NC(=O)[C@H](CCCCN)NC(=O)CNC(=O)[C@H](CO)NC(=O)[C@H](CCCNC(=N)N)NC3=O)NC(=O)[C@H](CC(=O)O)NC(=O)[C@H](Cc2ccc(O)cc2)NC1=O [ziconotide] | – | stable at 45 °C for weeks |
